Consider 56 compounds from PubChem BioAssay AID1159565 (GlaxoSmithKline (GSK), 2015).

What is called IC50 is the concentration needed to halve the response being measured.

This assay has as its system T. cruzi-infected H9C2 cardiomyocytes, high-content imaging. The experiment in a line: anti-T. cruzi activity in infected cardiomyocytes – imaging, H9C2 host cardiomyocytes, host toxicity (AID 1159565).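 Further: infected cells incubated 72 h after plating.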
Where [1] appears, read: measured here: H9C2 host cell toxicity.
[2] abbreviates: measured here: amastigotes per cell.

Active and inactive are the calls of the source. How the calls were made is not given here. Bounds are passed on as bounds.

As for `COc1ccc(C(=O)NC2CCN(CCn3c(=O)ccc4ncc(F)cc43)CC2)cc1Cl`, the IC50 is 0.63 µM. In addition, the IC50 under setting [1] is greater than 50 µM. Further, the IC50 under setting [2] was determined as 0.32 µM.
In the same order, the values of `CC1CN(Cc2ccc(C#N)cc2)CCN1c1ccc(NC(=O)c2ccccc2F)cc1` (stereo not drawn) are > 50 µM (inactive), greater than 50 µM and greater than 50 µM.
Regarding `Cn1nc([N+](=O)[O-])nc1N1CCCCC1`, the IC50 was 13 µM. For the same compound, under setting [1], the IC50 is greater than 50 µM. Besides, the IC50 under setting [2] stood at 1 µM.
In the case of `N#Cc1cc(N2CCCC2=O)ccc1Sc1ccccc1CO`, the IC50 was 0.4 µM. This compound also displayed an IC50 under setting [1] greater than 50 µM. In addition, the 50% inhibitory concentration (IC50) under setting [2] was determined as 0.25 µM.
As to `CCC(=O)Nc1ccc(-c2nc3ccc(Cl)cc3[nH]2)cc1`, the IC50 is 1.6 µM. The compound further registered an IC50 under setting [1] greater than 50 µM. For the same compound, the IC50 under setting [2] came to 0.5 µM.
Take `COc1ccc(-c2csc(NC(=O)c3ccc([N+](=O)[O-])s3)n2)cc1`: the IC50 is 0.25 µM. This compound also returned an IC50 under setting [1] of 32 µM. This compound came in with an IC50 under setting [2] of 0.2 µM.
In the same order, the values of `O=C(NCC(c1cccnc1)N1CCc2ccccc2C1)C(=O)Nc1cccc(Cl)c1` (stereo not drawn) are 0.079 µM, 25 µM and 0.063 µM.
As to `Clc1ccc(CN2CCN(C3=NCCN3)CC2)cc1Cl`, the IC50 is 10 µM. Further, the IC50 under setting [1] was greater than 50 µM. The concentration for half-maximal inhibition (IC50) under setting [2] was determined as 1 µM.
Take `O=C(Cn1cnc([N+](=O)[O-])n1)Nc1ccc(Cl)cc1C(=O)c1ccccc1`: the concentration for half-maximal inhibition (IC50) is 1.3 µM. Further, the IC50 under setting [1] is greater than 50 µM. This compound returned an IC50 under setting [2] of 0.32 µM.
In the same order, the values of `Cc1[nH]n2c(=O)c3c(nc2c1-c1ccc(F)cc1)CCCC3` are 2 µM, greater than 50 µM and 0.79 µM.
In the same order, the values of `CNc1cc(Cn2c(C(=O)c3cc(C)cc(Cl)c3)c(C(C)C)c(=O)[nH]c2=O)ccn1` are 0.02 µM, greater than 50 µM and 0.02 µM.
In the case of `CCCCc1cc(Nc2cc(C3CCC3)[nH]n2)nc(N2CCC2C(N)=O)n1` (stereo not drawn), the IC50 is 3.2 µM. For the same compound, the IC50 under setting [1] was 0.79 µM. The same compound had an IC50 under setting [2] of 1.6 µM.
In the same order, the values of `O=c1[nH]c(NCCCNCc2cc(Br)cc(Br)c2)nc2ccsc12` are 0.63 µM, 25 µM and 0.4 µM.
`c1cncc(CN(Cc2ccco2)Cc2cn[nH]c2-c2cccs2)c1`: the half-maximal inhibitory concentration (IC50) was 0.05 µM. Under setting [1], this compound showed an IC50 greater than 50 µM. Besides, the IC50 under setting [2] came to 0.04 µM.
Take `COc1ccc(S(=O)(=O)NC(C)C)cc1Nc1ncc(-c2cccc(F)c2)cn1`: the IC50 is 0.4 µM. The same compound gave an IC50 under setting [1] greater than 50 µM. Also, under setting [2], the IC50 is 0.32 µM.
Turning to `Cn1ccnc1CN1CCc2[nH]cnc2C1c1ccccc1OCc1ccccc1` (stereo not drawn), the IC50 is > 50 µM (inactive). In addition, under setting [1], the IC50 was greater than 50 µM. The same compound returned a 50% inhibitory concentration (IC50) under setting [2] greater than 50 µM.
As to `O=C(NCCCn1cnc2ccccc21)c1ccc(NC(=O)c2ccco2)cc1`, the IC50 was 2 µM. The same compound yielded an IC50 under setting [1] greater than 50 µM. Further, the concentration for half-maximal inhibition (IC50) under setting [2] was found to be 1.3 µM.
In the case of `COc1ccc(CNc2cc(C3CC3)nc(-c3nccn3C)n2)cc1`, the IC50 is 0.79 µM. Moreover, the 50% inhibitory concentration (IC50) under setting [1] was determined as 1 µM. The compound further yielded an IC50 under setting [2] of 0.63 µM.
In the same order, the values of `COc1ccc(Nc2nc(-c3ccccn3)cc(N3CCCC(O)C3)n2)cc1` (stereo not drawn) are 5 µM, 4 µM and 7.9 µM.
In the same order, the values of `O=C1CN(C2CCCc3c(OCc4ccncc4)cccc32)C(=O)N1C1CCCCC1` (stereo not drawn) are 0.016 µM, greater than 50 µM and 0.013 µM.
In the same order, the values of `Clc1ccc(Sc2cnccc2N2CCOCC2)cc1` are 0.13 µM, greater than 50 µM and 0.1 µM.
In the case of `O=C(C1CCCCC1)N1CCN(c2nnc(-c3ccccc3)c3ccccc23)CC1`, the IC50 was 0.63 µM. Under setting [1], this compound had an IC50 greater than 50 µM. The IC50 under setting [2] was found to be 0.4 µM.
In the same order, the values of `O=C(NCCc1nc(-c2ccc(F)c(F)c2)n[nH]1)C1CCCCC1` are 2.5 µM, greater than 50 µM and 1.6 µM.
In the same order, the values of `O=C1OCc2ccc(Nc3nccc(-c4cnn5ncccc45)n3)cc21` are 0.063 µM, 0.025 µM and 0.032 µM.
Regarding `Cc1nc2nc(C)c(Cc3ccc(C(C)C)cc3)c(=O)n2[nH]1`, the IC50 is 0.79 µM. Under setting [1], this compound gave an IC50 greater than 50 µM. Further, the IC50 under setting [2] turned out to be 0.25 µM.
Consider `Cc1ccc(S(=O)(=O)Nc2ccc(CN3CCN(C(=O)c4cccc(C#N)c4)CC3)cc2)cc1`, for which the IC50 is 0.5 µM. This compound also gave an IC50 under setting [1] greater than 50 µM. For the same compound, under setting [2], the IC50 came to 0.4 µM.
In the case of `CCS(=O)(=O)c1cccc(C(=O)Nc2nc(-c3ccccn3)cs2)c1`, the IC50 was 2.5 µM. The IC50 under setting [1] is 4 µM. The IC50 under setting [2] was 1.6 µM.
In the same order, the values of `Cc1cc(C#N)c([N+](=O)[O-])cc1Br` are 0.32 µM, 50 µM and 0.05 µM.
In the same order, the values of `CN(C)S(=O)(=O)c1cccc(CSc2nnc(-c3ccc4c(c3)OCO4)o2)c1` are 0.1 µM, greater than 50 µM and 0.05 µM.
For `COc1ccc(-c2ccc3nnc(-c4ccc(O)c(OC)c4)n3c2)cn1`, the IC50 was 3.2 µM. The compound also had an IC50 under setting [1] greater than 50 µM. For the same compound, under setting [2], the IC50 is 2 µM.
As to `Cc1cc(C)n(-c2nc(NC(C)(C)C)nc(N3CCOCC3)n2)n1`, the IC50 is 10 µM. The compound further came in with an IC50 under setting [1] of 1.3 µM. Under setting [2], this compound yielded an IC50 of 3.2 µM.
In the same order, the values of `Cc1ccc(NC(=O)c2ccnc(N3CCCC3)c2)cc1-c1ccsc1C(N)=O` are 13 µM, greater than 50 µM and 7.9 µM.
As for `Cc1nc(-c2nc(NCc3ccc(Cl)cc3)c3cccnc3c2O)n[nH]1`, the half-inhibitory concentration (IC50) was 0.79 µM. Besides, under setting [1], the IC50 was determined as 25 µM. The same compound yielded an IC50 under setting [2] of 1.3 µM.
Regarding `Cc1ccccc1NS(=O)(=O)c1ccc2[nH]cc(C(=O)NC3CCCCC3)c(=O)c2c1`, the IC50 is 16 µM. The same compound showed an IC50 under setting [1] of 25 µM. In addition, the IC50 under setting [2] amounted to 10 µM.
In the same order, the values of `N#Cc1ccc(C(=O)Nc2cccc(-c3cccc(CN4CCC(O)CC4)c3)c2)cc1` are 7.9 µM, 32 µM and 7.9 µM.
In the same order, the values of `CCCCn1nnnc1CSc1nc(C)cc(C)c1C#N` are 0.2 µM, greater than 50 µM and 0.1 µM.
In the same order, the values of `COc1cc(-c2nc(N3CCOCC3)sc2-c2ccnc(NC3CCOCC3)n2)ccc1Cl` are 0.16 µM, greater than 50 µM and 0.1 µM.
For `CCCCCNC(=O)c1c[nH]c2ccc(S(=O)(=O)N(C)c3ccc(OCC)cc3)cc2c1=O`, the IC50 is > 50 µM (inactive). The compound also returned a 50% inhibitory concentration (IC50) under setting [1] greater than 50 µM. The same compound gave a concentration for half-maximal inhibition (IC50) under setting [2] greater than 50 µM.
Consider `CC(c1ccc2c(c1)CCCC2)N(C)c1ncc2c(N)nc(N)nc2n1` (stereo not drawn), for which the half-maximal inhibitory concentration (IC50) is 0.032 µM. This compound also returned an IC50 under setting [1] of 10 µM. This compound yielded an IC50 under setting [2] of 0.01 µM.
In the same order, the values of `CNc1cc(C)nc(C2CN(C(=O)c3n[nH]c4ccccc34)CCO2)c1` (stereo not drawn) are 2.5 µM, greater than 50 µM and 0.79 µM.
Consider `Cc1cc(N(C)C)nc(Nc2ccccc2C)n1`, for which the IC50 was 0.79 µM. The compound further had an IC50 under setting [1] greater than 50 µM. For the same compound, the IC50 under setting [2] was 0.5 µM.
In the same order, the values of `Nc1nc(-c2ccccc2)cc(-c2nc3ncccc3[nH]2)n1` are 2 µM, 13 µM and 1.6 µM.
In the same order, the values of `CNS(=O)(=O)c1ccccc1Nc1nc(Nc2cc(C)nn2C)ncc1Cl` are 0.79 µM, 0.25 µM and 0.5 µM.
In the same order, the values of `Fc1ccc(Nc2nc(-c3ccccn3)cs2)cc1` are 5 µM, 1 µM and 5 µM.
As to `COc1ccc([N+](=O)[O-])cc1NC(=O)Nc1cccc(Cl)c1`, the concentration for half-maximal inhibition (IC50) was 10 µM. Moreover, under setting [1], the IC50 was greater than 50 µM. The same compound returned a concentration for half-maximal inhibition (IC50) under setting [2] of 0.4 µM.
In the same order, the values of `CC(=O)Nc1ccc(Nc2nccc(-c3cnn4ncccc34)n2)cc1C(F)(F)F` are 0.5 µM, 0.063 µM and 0.2 µM.
For the compound `CC(C)(C)c1cc(NC2CC2)nc(-c2ccccn2)n1`, the IC50 is 1.6 µM. Under setting [1], this compound returned an IC50 of 0.32 µM. The compound further had a 50% inhibitory concentration (IC50) under setting [2] of 1.3 µM.
In the case of `COc1ccc(CN(C)Cc2ccncc2)cc1-c1ccc(S(=O)(=O)NC2CCC2)s1`, the IC50 is 0.63 µM. This compound also showed an IC50 under setting [1] of 10 µM. Also, the IC50 under setting [2] worked out at 0.5 µM.
In the same order, the values of `COc1cccc(CCNC(=O)C(c2cn[nH]c2)N2CCN(c3ccc(Cl)cc3)CC2)c1` (stereo not drawn) are 0.02 µM, 40 µM and 0.016 µM.
For the compound `CC(c1ccccn1)N(C)Cc1nc2ccccc2n1C(C)C` (stereo not drawn), the IC50 was 6.3 µM. Further, the 50% inhibitory concentration (IC50) under setting [1] was greater than 50 µM. Also, the IC50 under setting [2] was found to be 2 µM.
In the same order, the values of `Cc1ccc(S(C)(=O)=O)cc1Nc1nccc(-c2sc(N)nc2-c2ccccc2)n1` are 0.13 µM, 5 µM and 0.079 µM.
Take `C=CCOCC1Cn2nc([N+](=O)[O-])nc2O1` (stereo not drawn): the IC50 was 1.3 µM. Under setting [1], this compound had a half-inhibitory concentration (IC50) greater than 50 µM. The compound also displayed an IC50 under setting [2] of 0.63 µM.
In the same order, the values of `CC(c1cc(Cl)cc(Cl)c1)N(C)c1ncc2c(N)nc(N)nc2n1` (stereo not drawn) are 0.002 µM, 7.9 µM and 0.001 µM.
In the same order, the values of `CC1CN(S(=O)(=O)c2ccc(NC(=O)c3cc(C4CC4)nc4c3cnn4C(C)C)cc2)CC(C)O1` (stereo not drawn) are 0.79 µM, greater than 50 µM and 0.63 µM.
In the same order, the values of `COc1ccc2c(Cl)c(C(=O)N3CCC3)sc2c1Cl` are 2.5 µM, greater than 50 µM and 0.79 µM.
As to `Cc1ccc(CNC2CCN(C[C@@H]3Cn4c(=O)ccc5ccc(=O)n3c54)CC2)cc1F`, the IC50 is 1.3 µM. Further, under setting [1], the IC50 is greater than 50 µM. Under setting [2], this compound gave a concentration for half-maximal inhibition (IC50) of 1 µM.
